Assay results: patent publication US20190269626A1, “Hair Protection Effect of Vanillyl Alkyl Ether and the Application thereof” (CORUM INC., priority 2018, published 2019)

How the values were obtained:
[1] = system: hair loss related genes expression (CYP1B1, TGF-β2, and TNF-α) in HFDPC; assay: Pollutant-induced hair loss related genes expression in HFDPC; format: cell-based, human
From the text: Still another example of this embodiment is application of VBE on decreasing pollutant-induced hair loss related genes expression (CYP1B1, TGF-β2, and TNF-α) on HFDPC. FIG. 3 presents pollutant-induced hair loss related genes expression (CYP1B1, TGF-β2, and TNF-α) by VBE, and DMF. DMF is 3′,4′-dimethoxyflavone, and is a AhR (aryl hydrocarbon receptor) antagonist. Pollutants usually generate damages though activating the transcription factor AhR.
(§1) FIG. 5 presents how to improve hair loss of human hair follicle dermal papilla cells with VBE according to the above examples. Hair follicle is a mini-organ of the skin which contains dermal papilla cells (DPC) in the bottom site surrounded with matrix cells (keratinocytes) and melanocytes. DPC play an important role to regulate matrix cell proliferation, differentiation and apoptosis during hair cycles, and matrix cells are responsible for forming the major structures of the hair shaft. In the above examples, we established an in vitro model to investigate hair loss mechanism caused by air pollution. Based on our data, SRM1649b (urban dust) PM2.5 is able to activate AhR pathway, enhance ROS generation, up-regulate gene expression of alopecia-related factors (TGF-β2, TNF-α and PTGS2) and stimulate inflammatory cytokines (IL-6, IL-8, and GM-CSF) in human hair follicle dermal papilla cells. […] The mechanism of air pollution induced hair loss is illustrated in FIG. 5.

[2] = system: AhR pathway in human hair follicle dermal papilla cells; assay: Air pollution (SRM1649b urban dust PM2.5) in vitro hair loss model in HFDPC: AhR activity and GM-CSF; format: cell-based
From the text: as §1, with “Hair” for “FIG. 5 presents how to improve hair loss of human hair follicle dermal papilla cells with VBE according to the above examples. Hair”

5-alpha reductase = 5-alpha reductase activity: DHT/Testosterone ratio in NHEK with [14C] testosterone; format: cell-based, human
[3] = system: LPS-induced inflammatory cytokines (IL-6 and IL-8) in macrophages; assay: LPS-induced inflammatory cytokines (IL-6 and IL-8) in macrophages; format: cell-based
From the text: One preferred example of this embodiment is application of VBE on decreasing LPS-induced inflammation (IL-6, and IL-8).

[4] = system: anagen hairs and telogen hairs; assay: Clinical evaluation of VBE versus placebo, phototrichogram hair growth cycle analysis; format: in vivo, human; conditions: topical once a day for 84 days, half-head versus placebo, subjects with androgenetic alopecia
Procedure: Another example of this embodiment is clinical evaluation of the effect of VBE versus placebo in the male and female subjects after repeated application of 84 days through. The clinical test is finished by Spincontrol, France. The evaluation was performed using phototrichogram for hair growth cycle analysis. 11 healthy subjects from 25 to 49 years with a chronic hair loss/alopecia of androgenetic origin were selected for this study.

ROS generation in HFDPC = assay: ROS generation with/without pollutant in HFDPC; format: cell-based, human; conditions: for ROS generation, pollutant-stimulated condition: pollutant-triggered; for ROS generation, basal condition: without pollutant (basal)
From the text: FIG. 4A to FIG. 4B respectively presents with/without pollutant-triggered ROS generation on HFDPC by VBE, and CAP (capsaicin). […] Hair follicle is a mini-organ of the skin which contains dermal papilla cells (DPC) in the bottom site surrounded with matrix cells (keratinocytes) and melanocytes. DPC play an important role to regulate matrix cell proliferation, differentiation and apoptosis during hair cycles, and matrix cells are responsible for forming the major structures of the hair shaft. In the above examples, we established an in vitro model to investigate hair loss mechanism caused by air pollution. Based on our data, SRM1649b (urban dust) PM2.5 is able to activate AhR pathway, enhance ROS generation, up-regulate gene expression of alopecia-related factors (TGF-β2, TNF-α and PTGS2) and stimulate inflammatory cytokines (IL-6, IL-8, and GM-CSF) in human hair follicle dermal papilla cells. […] The mechanism of air pollution induced hair loss is illustrated in FIG. 5.

[5] = system: PMA-induced inflammatory cytokines (IL-6 and IL-8) in HFDPC (human follicle dermal papilla cells); assay: PMA-induced inflammatory cytokines (IL-6 and IL-8) in HFDPC; format: cell-based
From the text: Still another example of this embodiment is application of VBE on decreasing PMA-induced inflammation (IL-6 and IL-8). […] Capsaicin, nonivamide, and minoxidil are effectless to PMA-induced IL-6, and IL-8.

| pollutant-induced CYP1B1 gene expression [1] | pollutant-induced TGF-β2 gene expression [1] | pollutant-induced TNF-α gene expression [1] | SMILES | LPS-induced IL-6 [3] | LPS-induced IL-8 [3] | ROS generation, pollutant-stimulated condition (ROS generation in HFDPC) | ROS generation, basal condition (ROS generation in HFDPC) | PMA-induced IL-6 [5] | PMA-induced IL-8 [5] | further results |
| --- | --- | --- | --- | --- | --- | --- | --- | --- | --- | --- |
| reducing | reducing | reducing | COc1ccc(-c2cc(=O)c3ccccc3o2)cc1OC [DMF, 3′,4′-dimethoxyflavone] |  |  |  |  |  |  |  |
| reduce | reduce | reduce | CCCCOCc1ccc(O)c(OC)c1 [VBE, vanillyl butyl ether] | decrease | decrease | decreased | decreased | decrease | decrease | AhR activity [2]: attenuating; GM-CSF production [2]: attenuating; DHT/Testosterone ratio compared to control (5-alpha reductase; 50 μg/ml): 64%; DHT/Testosterone ratio, dose dependence (5-alpha reductase; 1.25 to 50 μg/ml): decreases DHT/Testosterone ratio in a dose dependent manner; Anagen (growing) hair [4]: increased; Telogen (resting or shedding) hair [4]: reduced; enhancement of ratio of Anagen to Telogen [4]: 6% |
|  |  |  | CC(C)(C)NC(=O)[C@H]1CC[C@H]2[C@@H]3CC[C@H]4NC(=O)C=C[C@]4(C)[C@H]3CC[C@]12C [finasteride] |  |  |  |  |  |  | DHT/testosterone ratio compared to the control condition (5-alpha reductase; finasteride reference): 1% |
|  |  |  | COc1cc(CNC(=O)CCCC/C=C/C(C)C)ccc1O [Capsaicin] | decreased | decreased | no effect | no effect | no effect | no effect |  |
|  |  |  | CCCCCCCCC(=O)NCc1ccc(O)c(OC)c1 [Nonivamide] | decreased | decreased |  |  | no effect | no effect |  |
|  |  |  | Nc1cc(N2CCCCC2)nc(N)[n+]1[O-] [Minoxidil] |  |  |  |  | no effect | no effect |  |
